One experiment deals with MDA-MB-468 cells. Nature of the experiment: TNBC MDA-MB-468 subcutaneous xenograft model. The class given is in vivo, NSG mice. Conditions: 50 mg/kg b.i.d. oral gavage, 5-days on 2-days off, 19 days. As to the method: Tumour volumes of mice treated with vehicle or EX33 (50 mg/kg b.i.d.) were measured by caliper twice a week, over the course of 19 days. Data is given as Mean±SEM, n=6-10. Statistical analysis was performed by an unpaired two-tailed Student t test.
The MDA-MB-468 model has previously been reported in the literature to be dependent upon Akt3 for xenograft tumour growth (Chin et al., Cancer Res 2014).
NSG mice were injected subcutaneously with MDA-MB-468 cells, and the effect on tumour growth of EX33 was evaluated. EX33 was administered at 50 mg/kg, and was given by oral gavage twice a day in a 5-days on and 2-days off cycle. Tumour growth was monitored by caliper measurements twice a week.
Data are given as Mean±SEM, n=6-10. Statistical analysis was performed by unpaired two-tailed Student t test.

Experiment [1] deals with MBBR3A human melanoma cancer cell line. Nature of the experiment: MBBR3A human melanoma sub-cutaneous xenograft model. The class given is in vivo, Nude mice. Particulars: 50 mg/kg b.i.d. oral gavage, 5-days on 2-days off, 15 days. On the procedure:
Tumour volumes of mice treated with vehicle or EX33 (50 mg/kg b.i.d.) were measured by caliper twice a week, over the course of 15 days. Data is given as Mean±SEM, n=10-12. Statistical analysis was performed by an unpaired two-tailed Student t test.
Nude mice were injected subcutaneously with MBBR3A cells, and the effect on tumour growth of EX33 was evaluated. EX33 was administered at 50 mg/kg EX33 given by oral gavage twice a day in a 5-days on and 2-days off cycle. Tumour growth was monitored by caliper measurements twice a week.
Data are given as Mean±SEM, n=10-12. Statistical analysis was performed by unpaired two-tailed Student t test.
Background: A xenograft is tissue or cells of one species grown in another, often human tumour cells in immunodeficient mice.

Experiment [2] has as its system hepatic stellate cell line LX2. Kind of experiment: α-sma protein and mRNA levels in activated hepatic stellate cells. The class given is cell-based, human. As to the method: LX2 cells were treated for 72 hours with the indicated dosages of EX33 (μM). Cell lysates were analyzed by immune blotting for alpha-smooth muscle actin (α-SMA), PCNA and total p-Akt. Actin was used as a loading control.
LX2 cells were treated for 24 hours with the indicated dosages of EX33 (μM). mRNA was isolated and analyzed by RT-PCR for α-SMA expression. Expression level in Vehicle treated cells (0 EX33) was set to 1, and α-sma expression levels following treatment with indicated dosages of EX33 calculated relative to that.
Liver fibrosis is characterized by accumulation of extracellular matrix components such as alpha-smooth muscle actin (α-sma) mainly derived from activated hepatic stellate cells (HSCs).
The role of AKT3 in liver fibrosis was analyzed by studying the efficacy of EX33 to block HSC activation. The human activated hepatic stellate cell line LX2 was treated with different dosages of EX33 and the effects on α-sma protein and mRNA levels were analysed by immune blotting (see FIG. 9) and RT-PCR (see FIG. 10) respectively.

For experiment [3], the system named is TNBC cell line MDA-MB-231. Nature of the experiment: 3D tumour cell growth in matrigel. The class given is cell-based. Particulars: MDA-MB-231 in matrigel, increasing concentrations, 9 days, DMSO control. As to the method:
MDA-MD-231 cells were treated with increasing concentrations of EX34 or EX33 for 9 days. Treatment was initiated one day after tumour cell seeding. DMSO was used as control. The graphs in FIG. 2 show average tumour size±SEM following treatment with each of EX34 and EX33. Images of the 3D cultures were batch analysed with AMIDA software.
In order to evaluate the role of Akt3 in tumour cell growth and invasion, the effect of two compounds of the invention, the compound of Example 34 (denoted hereafter as EX34) and the compound of Example 33 (denoted hereafter as EX33), on 3D growth in matrigel was assessed.
The TNBC cell line MDA-MB-231 was seeded in matrigel and the cell cultures were treated with increasing concentrations of EX34 or EX33 for 9 days. Treatment was initiated one day after tumour cell seeding. DMSO was used as control. The average tumour sphere size was then evaluated for each treatment. Representative pictures are shown in FIG. 1 for each of the indicated treatment conditions.
Images of the 3D cultures were batch analysed with AMIDA software to quantify the 3D tumour sphere size.

The next experiment has as its system HMLER-Akt3 cells. Nature of the experiment: HMLER-Akt3 tumour seeding xenograft model. Format: in vivo, NSG mice. Conditions: for tumour initiation: 100 mg/kg once a day from day of implantation; for Tumour incidence (tumours formed/total number of implantations): 100 mg/kg once a day, after 2 weeks, tumours exceeding 20 mm^3. On the procedure:
HMLER cells are not very tumourigenic. However, after enforced expression of Akt3, these cells are able to initiate tumours.
Mice implanted with 10^5 or 10^6 HMLER-Akt3 cells were treated with vehicle, EX34 or EX33 at 100 mg/kg once a day. Treatment was initiated on the day of tumour cell implantation. A total of 10 tumours were implanted for each treatment condition. Tumour incidence was evaluated after 2 weeks and tumour size cut of was set at 20 mm^3. Significance determined by unpaired Student two-tailed t test.
The numbers are given as tumours formed/total number of implantations. Significance was determined by unpaired two-tailed Student t-test. Ns: not significant.

For experiment [4], the system named is MDA-MB-231-D3H2LN/GPF-Luc cells. Kind of experiment: Invasive 3D tumour cell growth in matrigel. The class given is cell-based. Conditions: 2 μM, 72 hours, fluorescence microscopy. As to the method: The TNBC aggressive cell line MDA-MB-231-D3H2LN/GPF-Luc was seeded in matrigel on cover slides to obtain invasive 3D tumour cell colonies. Cell cultures were treated for 72 hours with DMSO (control), 2 μM EX34 or 2 μM EX33, and colonies were evaluated by fluorescence microscopy for 3D invasive growth.

The next experiment deals with Akt3 in MDA-MB-231 cells. Nature of the experiment: Cellular (nuclear) localization of Akt3 by immune fluorescence microscopy. The class given is cell-based. Particulars: 2 μM, 36 hours. As to the method: FIGS. 4 and 5 refer to the cellular localization of Akt3 in MDA-MB-231 cells that were treated for 36 hours with EX33 or EX34. In FIG. 4, cells were stained to visualize the nucleus (top left panel) and Akt3 (top right panel) and analyzed using immune fluorescence microscopy. […] The results were obtained using TissueQuest Software.
The cellular program of epithelial to mesenchymal transition (EMT) is utilized by tumour cells to develop drug resistance and to metastasize. Nuclear translocation of Akt3 is considered crucial for Akt3's ability to phosphorylate SNAIL and induce EMT.
MDA-MB-231 cells were treated for 36 hours with Vehicle (DMSO) or 2 μM EX34. Cells were stained to visualize the nucleus and Akt3. […] Mean intensity of Akt3 in the nucleus was evaluated after treatment with DMSO (control) or EX33 using TissueQuest Software (see FIG. 5).

Another experiment relates to NSCLC cell line H2086. Kind of experiment: EMT induction (Vimentin immune blotting) with TGF-β under hypoxia. Format: cell-based. Conditions: H2086 cells, 20 ng/ml TGF-β, 1% O2, 5 days, 1 μM compound. On the procedure: EMT induction was evaluated by quantification of the EMT marker Vimentin. NSCLC H2086 cells were treated with 20 ng/ml TGF-β under hypoxic conditions (1% O2) for 5 days. The effect on Vimentin was evaluated by immune blotting for cells treated with Vehicle (DMSO), 1 μM EX33 or 1 μM EX34, and the results are shown in FIG. 7. Glyceraldehyde-3-phosphate dehydrogenase (GAPDH) was used as loading control. The band intensity of Vimentin has been related to the intensity of the GAPDH band.
NSCLC H2086 cells were treated with 20 ng/ml TGF-β under hypoxic conditions (1% O2) for 5 days to induce EMT. The ability of EX33 and EX34 to prevent EMT was evaluated by quantification of the EMT marker Vimentin. The effect on Vimentin was evaluated by immune blotting for cells treated with Vehicle (DMSO), 1 μM EX33 or 1 μM EX34. GAPDH was used as loading control. The band intensity of Vimentin has been related to the intensity of the GAPDH band.

Experiment [5] has as its system pAkt1, pAkt2 and pAkt3 in MCF10DCIS xenograft tumours. Nature of the experiment: Akt phosphorylation in MCF10DCIS xenograft tumours (SureFire). The class given is in vivo, mice. Particulars: 25 mg/kg oral gavage once a day for 2, 4 or 6 days; pAkt1, pAkt2, pAkt3 measured. On the procedure: Mice carrying MCF10DCIS xenograft tumours were treated with Vehicle or EX33 at 25 mg/kg once a day for 2, 4 or 6 days. Tumours were harvested and analyzed by SureFire assay for levels of pAkt1, pAkt2 and pAkt3. Average±SEM are shown, n=4.
Nude mice were injected subcutaneously with MCF10DCIS cells. When the average tumour size reached 440 mm^3, EX33 was administered at 25 mg/kg for 2, 4 or 6 days. EX33 was given by oral gavage once a day. Tumours were harvested and analyzed by SureFire assay for levels of pAkt1, pAkt2 and pAkt3. Average±SEM are shown, n=4.

A further experiment relates to NSCLC cell line H2073. Nature of the experiment: Cell viability with paclitaxel (resazurin reduction) in paclitaxel-resistant cells. Format: cell-based. Particulars: paclitaxel with or without compound, 72 hours. As to the method: Cell viability was evaluated using resazurin reduction. Average±SEM are shown, n=3.
The NSCLC cell line H2073 was established from a patient that was resistant to treatment with paclitaxel.
H2073 cells were treated with increasing dosages of paclitaxel in the absence or presence of EX34 for 72 hours, and cell viability was evaluated using resazurin reduction. Average±SEM are shown, n=3.
(The colour change of resazurin is a common sign of viable cells or microbes.)

The test system of experiment [6] is MDA-MB-231D3H2LN/GFP-Luc mammary carcinoma cells. Nature of the experiment: Lung metastasis after tail vein injection of TNBC cells. Format: in vivo, NSG mice. Particulars: 25 mg/kg twice a day. As to the method: Mice injected with MDA-MB-231D3H2LN/GFP-Luc mammary carcinoma cells and treated with vehicle or EX67 (25 mg/kg b.i.d.) over the course of 14 days were injected with D-luciferin (150 mg/kg) IP 10 minutes before being imaged. Whole-body imaging was performed on an Optix MX2 Small Animal Molecular Imager to measure the total photon count for each animal±SEM. n=10 for vehicle and n=10 for EX67 group.
The cellular program of epithelial to mesenchymal transition (EMT) is utilized by tumor cells to metastasize. The effect of EX67 on lung metastases was evaluated in a TNBC model.
NSG mice were injected in the tail vein with 500 000 MDA-MB-231D3H2LN/GFP-Luc mammary carcinoma cells. Mice were treated with Vehicle or 25 mg/kg EX67 twice a day. Metastases to the lung were evaluated by in vivo imaging after 3 weeks. Lung metastases were also evaluated macroscopically at the day of culling (see FIG. 14).
After 14 days, lung metastases were detected in 10/10 mice treated with Vehicle and 7/10 mice treated with EX67.

The mark [7] stands for this setting: 10^5 HMLER-Akt3 cells implanted.
The mark [8] stands for this setting: 10^6 HMLER-Akt3 cells implanted.

The source of these data is patent US10336702B2, “Pharmaceutically active compounds” (BERGENBIO ASA, priority 2015, dated 2019).

`CC(=O)N(C)[C@H]1CC[C@H](CC(=O)Nc2cc(-c3ccccc3)c(-c3ccc(C4(N)CCC4)cc3)cn2)CC1` [EX33]: the “primary tumour growth (tumour volume)” value (in the experiment with MDA-MB-468 cells; in experiment [1]) was “reduced tumour growth compared to vehicle treated mice” in each case. For the same compound, the “α-sma mRNA level” value in experiment [2] (24 hours, RT-PCR) was “decreases the levels of α-sma mRNA and protein”. Further, the α-sma protein level result in [2] (72 hours, immune blotting) is “decreases the levels of α-sma mRNA and protein”. In addition, the “3D tumour cell growth (average tumour sphere size)” value in [3] was “dose-dependent inhibition of 3D tumour cell growth”. The tumour initiation entry with HMLER-Akt3 cells was “prevented tumour initiation”. Besides, the “Tumour incidence (tumours formed/total number of implantations)” value with HMLER-Akt3 cells (setting [7]) and in the experiment on HMLER-Akt3 cells (setting [8]) was 0/10^<0.0001 throughout. Moreover, the “invasive 3D tumour cell growth” value in experiment [4] is reported as “inhibited tumour cell growth”. For the same compound, in the experiment with Akt3 in MDA-MB-231 cells, the “nuclear localization of Akt3” value was “Akt3 stains cytoplasmic”. The “EMT induction (EMT marker Vimentin)” value in the experiment with NSCLC cell line H2086 is “prevent EMT induction”. The “level of Akt3 phosphorylation in xenograft tumours” value in experiment [5] is “selectively reduced the level of Akt3 phosphorylation”.
As for `COC(=O)N(C)[C@H]1CC[C@H](CC(=O)Nc2cnc(-c3ccc(C(C)(C)N)cc3)c(-c3ccccc3)c2)CC1` [EX34], the “3D tumour cell growth (average tumour sphere size)” value in [3] is recorded as “dose-dependent inhibition of 3D tumour cell growth”. Also, the tumour initiation entry in the experiment on HMLER-Akt3 cells is “prevented tumour initiation”. Moreover, the “Tumour incidence (tumours formed/total number of implantations)” value with HMLER-Akt3 cells (setting [7]) is given as 3/10^ns; with HMLER-Akt3 cells (setting [8]), 0/10^0.0002. Further, in experiment [4], the “invasive 3D tumour cell growth” value is on record as “inhibited tumour cell growth”. Further, the “nuclear localization of Akt3” value in the experiment with Akt3 in MDA-MB-231 cells is “prevents nuclear localization of Akt3”. The “EMT induction (EMT marker Vimentin)” value in the experiment with NSCLC cell line H2086 is reported as “prevent EMT induction”. The “sensitivity to paclitaxel (cell viability)” value in the experiment on NSCLC cell line H2073 is recorded as “sensitizes the paclitaxel resistant cell line H2073 to paclitaxel”.
Take `COC(=O)N(C)[C@H]1CC[C@H](CC(=O)Nc2cc(-c3ccccc3)c(-c3ccc([C@]4(N)C[C@](C)(O)C4)cc3)cn2)CC1` [EX67]: in experiment [6], the lung metastases entry was “prevented metastases compared to vehicle-treated mice in a sub-set of animals”. Besides, the “mice with lung metastases detected” value in experiment [6] (after 14 days, vehicle 10/10) is 7/10.
